Assay results: paper PMC10477886, “Adamantaniline Derivatives Target ATP5B to Inhibit Translation of Hypoxia Inducible Factor‐1α” (Advanced Science, 2023)

What was measured:
[1] = test system: HIF‐1α transcriptional activity; assay: dual‐luciferase assay (HRE‐Firefly Luciferase / renilla) of HIF‐1α transcriptional activity in HEK293T cells; format: cell-based, human; settings: mean ± s.d. (n = 3); for inhibition at 10 µM: read-out: Inhibition rate [%] @ 10 µM; for IC50: HEK293T dual‐luciferase
Source text: To screen HIF‐1α inhibitors in a robust cell‐based assay, we optimized the dual‐luciferase assay with pLenti‐HIF‐1αP2A (P402A and P564A) instead of pLenti‐HIF‐1α in order to ensure the expression of HIF‐1α under normoxia condition. In the cell‐based assay, HEK293T cells were co‐transfected with pLenti‐HIF‐1αP2A, renilla, and hypoxia‐responsive element (HRE)‐Firefly Luciferase (Figure S1, Supporting Information). […] Three compounds were selected as the positive controls including two inhibitors (PX‐478 2HCl and BAY 87‐2243) and an activator (BAY 85‐3934) in the screening assay.
HEK293T cells were stably transfected with reporter plasmids pGMLV‐HRE‐LUC‐puromycin, pMSCV‐renilla‐hygromycin, and pLenti‐HIF‐1αP2A‐neomycin. Stable cell line constructed above, 293‐HIF‐1αP2A‐HRE‐Fluc‐Rluc, were seeded in 384‐well plates and cultured in DMEM with 10% FBS. The following day, the cells were pretreated with indicated chemical compounds from the National Compound Library of the Shanghai Institute of Materia Medica, Chinese Academy of Sciences by Mosquito HTS. The plate was then placed in an incubator chamber and incubated at 37 °C for 24 h. The ratio of firefly/renilla luciferase activity was determined by using the Envision (PerkinElmer).
Stable cell line 293‐HRE‐Fluc‐Rluc expressed luciferase and renilla or HEK293T cells transfected with indicated plasmids (pGL3‐HRE‐luciferase and pSV40‐renilla) were seeded in a 96‐well plate. The cells were co‐incubated with indicated compounds for 24 h and luciferase activities were detected in Microplate Reader (BioTek SYNEGRY H1) using the Dual Luciferase Reporter Assay System Kit (Promega, USA E1910) according to the manufacturer's instruction. The relative Luc activity was normalized by renilla activity. Three independent experiments were performed, and the calculated means and SDs are presented.

[2] = plasma concentration and pharmacokinetics after intraperitoneal administration in ICR mice; format: in vivo; settings: intraperitoneal 50 mg kg^−1, two mice per compound, five times
Procedure: First, we roughly screened the concentrations in the plasma of seven selected compounds (1‐3n, 1‐3au, 1‐4a, 1‐4k, 1‐4l, 1‐4m, and 1‐4p) at indicated times after intraperitoneal administration in the Institute of Cancer Research (ICR) mice at a dose of 50 mg kg^−1 with two mice per compound, the blood at five different times was collected and the plasma concentration was analyzed finally. […] Besides, we examined the toxicity of HI‐104 in ICR mice by administering for 1 week at a dose of 100 mg kg^−1 by intraperitoneal injection.

[3] = Homo sapiens, HEK-293T, 10 µM, incubation 24 h, HEK293T

IC50 ([1]; Homo sapiens, HEK-293T) [nM] | concentration in the plasma (rough screen) [2] | IC50 [1] [nM] | SMILES | inhibition at 10 µM [1, 3] [%] | Inhibition rate [%] @ 10 µM ([1]; 10 µM, incubation 24 h, HEK293T) [%]
26 ± 5 | barely detectable in the plasma |  | O=C(Nc1ccc(C23CC4CC(CC(C4)C2)C3)cc1)c1cccc(O)c1 [1‐3n, N‐(4‐((3r,5r,7r)‐Adamantan‐1‐yl)Phenyl)−3‐Hydroxybenzamide] | 99.7 ± 0.1 | 
73 ± 2 | barely detectable in the plasma |  | Nc1ccnc(C(=O)Nc2ccc(C34CC5CC(CC(C5)C3)C4)cc2)c1 [1‐4p, N‐(4‐((3r,5r,7r)‐Adamantan‐1‐yl)Phenyl)−4‐Aminopicolinamide] | 99.2 ± 0.1 | 
83 ± 3 | barely detectable in the plasma |  | Cn1cncc1C(=O)Nc1ccc(C23CC4CC(CC(C4)C2)C3)cc1 [1‐4l, N‐(4‐((3r,5r,7r)‐Adamantan‐1‐yl)Phenyl)−1‐Methyl‐1H‐Imidazole‐5‐Carboxamide] | 97.8 ± 0.6 | 
65 ± 22 | barely detectable in the plasma |  | O=C(Nc1ccc(C23CC4CC(CC(C4)C2)C3)cc1)c1ccccn1 [1‐4a, N‐(4‐((3r,5r,7r)‐Adamantan‐1‐yl)Phenyl)Picolinamide] | 99.7 ± 0.2 | 
86 ± 3 | barely detectable in the plasma |  | O=C(Nc1ccc(C23CC4CC(CC(C4)C2)C3)cc1)c1c[nH]cn1 [1‐4k, N‐(4‐((3r,5r,7r)‐Adamantan‐1‐yl)Phenyl)−1H‐Imidazole‐4‐Carboxamide] | 99.7 ± 0.2 | 
 |  |  | Cc1cc(C23CC4CC(CC(C4)C2)C3)cc(C)c1NC(=O)c1cccc(Cl)c1 [3‐2a, N‐(4‐((3r,5r,7r)‐Adamantan‐1‐yl)−2,6‐Dimethylphenyl)−3‐Chlorobenzamide] | 34.8 ± 3.8 | 
540 ± 20 |  |  | Nc1ccccc1C(=O)Nc1ccc(C23CC4CC(CC(C4)C2)C3)cc1 [1‐3s, N‐(4‐((3r,5r,7r)‐Adamantan‐1‐yl)Phenyl)−2‐Aminobenzamide] | 90.4 ± 1.7 | 
 |  |  | CC(=O)Nc1ccccc1C(=O)Nc1ccc(C23CC4CC(CC(C4)C2)C3)cc1 [1‐3v, 2‐Acetamido‐N‐(4‐((3r,5r,7r)‐Adamantan‐1‐yl)Phenyl)Benzamide] | 18.4 ± 2.2 | 
 |  |  | O=C(Nc1ccc(C23CC4CC(CC(C4)C2)C3)cc1)c1ccc(Cl)cc1 [1‐3c, N‐(4‐((3r,5r,7r)‐Adamantan‐1‐yl)Phenyl)−4‐Chlorobenzamide] | 63.4 ± 5.4 | 
170 ± 20 |  |  | Nc1cccnc1C(=O)Nc1ccc(C23CC4CC(CC(C4)C2)C3)cc1 [1‐4r, N‐(4‐((3r,5r,7r)‐Adamantan‐1‐yl)Phenyl)−3‐Aminopicolinamide] | 97.5 ± 1 | 
 |  |  | O=C(Nc1ccc(C23CC4CC(CC(C4)C2)C3)cc1)c1ccc(Br)cc1 [1‐3f, N‐(4‐((3r,5r,7r)‐Adamantan‐1‐yl)Phenyl)−4‐Bromobenzamide] | 67.1 ± 5.1 | 
1500 ± 200 |  |  | O=C(NC1C2CC3CC(C2)CC1C3)c1ccc(NC(=O)c2ccccn2)cc1 [2‐3a, N‐(4‐(((1R,3S,5r,7r)‐Adamantan‐2‐yl)Carbamoyl)Phenyl)Picolinamide] | 78.5 ± 4.5 | 
1400 ± 300 |  |  | O=C(Nc1ccc(C23CC4CC(CC(C4)C2)C3)cc1)c1cccc(Br)c1 [1‐3e, N‐(4‐((3r,5r,7r)‐Adamantan‐1‐yl)Phenyl)−3‐Bromobenzamide] | 86.3 ± 0.2 | 
110 ± 10 |  |  | Nc1ccc(C(=O)Nc2ccc(C34CC5CC(CC(C5)C3)C4)cc2)cc1 [1‐3u, N‐(4‐((3r,5r,7r)‐Adamantan‐1‐yl)Phenyl)−4‐Aminobenzamide] | 98.4 ± 0.1 | 
510 ± 20 |  |  | O=C(Nc1ccc(C23CC4CC(CC(C4)C2)C3)cc1)c1ccccc1O [1‐3m, N‐(4‐((3r,5r,7r)‐Adamantan‐1‐yl)Phenyl)−2‐Hydroxybenzamide] | 88.4 ± 0.2 | 
2300 ± 500 |  |  | O=C(CCCCBr)Nc1ccc(C(=O)Nc2ccc(C34CC5CC(CC(C5)C3)C4)cc2)cc1 [1‐3ao, N‐(4‐((3r,5r,7r)‐Adamantan‐1‐yl)Phenyl)−4‐(5‐Bromopentanamido)Benzamide] | 82.9 ± 2.4 | 
 |  |  | O=C(Nc1ccc(C23CC4CC(CC(C4)C2)C3)cc1)c1cccc(C(F)(F)F)c1 [1‐3ae, N‐(4‐((3r,5r,7r)‐Adamantan‐1‐yl)Phenyl)−3‐(Trifluoromethyl)Nenzamide] | 20.2 ± 1.5 | 

IC50 ([1]; Homo sapiens, HEK-293T) [nM] | concentration in the plasma (rough screen) [2] | IC50 [1] [nM] | SMILES | inhibition at 10 µM [1, 3] [%] | Inhibition rate [%] @ 10 µM ([1]; 10 µM, incubation 24 h, HEK293T) [%]
 |  |  | O=C(Nc1ccc(C23CC4CC(CC(C4)C2)C3)cc1)c1ccc(N2CCOCC2)cc1 [1‐3ag, N‐(4‐((3r,5r,7r)‐Adamantan‐1‐yl)Phenyl)−4‐Morpholinobenzamide] | 41.6 ± 8.9 | 
 |  |  | CC(C)(C)OC(=O)Nc1ccccc1C(=O)Nc1ccc(C23CC4CC(CC(C4)C2)C3)cc1 [1‐3p, Tert‐Butyl 2‐(2‐((4‐((3r,5r,7r)‐Adamantan‐1‐yl)Phenyl)Carbamoyl)Phenyl)Carbamate] | 40.3 ± 3.2 | 
390 ± 10 |  |  | O=C(Nc1ccc(C23CC4CC(CC(C4)C2)C3)cc1)c1cccs1 [1‐4j, N‐(4‐((3r,5r,7r)‐Adamantan‐1‐yl)Phenyl)Thiophene‐2‐Carboxamide] | 98.7 ± 0.6 | 
 |  |  | O=C(Nc1ccc(C23CC4CC(CC(C4)C2)C3)cc1)c1cccnc1 [1‐4b, N‐(4‐((3r,5r,7r)‐Adamantan‐1‐yl)Phenyl)Nicotinamide] | 75.2 ± 1.9 | 
 |  |  | O=C(Nc1ccc(C23CC4CC(CC(C4)C2)C3)cc1)c1ccc(N2CCCC2)cc1 [1‐3ah, N‐(4‐((3r,5r,7r)‐Adamantan‐1‐yl)Phenyl)−4‐(Pyrrolidin‐1‐yl)Benzamide] | 66.5 ± 0.9 | 
1400 ± 500 |  |  | CN1CCN(CCCCC(=O)Nc2ccc(C(=O)Nc3ccc(C45CC6CC(CC(C6)C4)C5)cc3)cc2)CC1 [1‐3ap, N‐(4‐((3r,5r,7r)‐Adamantan‐1‐yl)Phenyl)−4‐(5‐(4‐Methylpiperazin‐1‐yl)Pentanamido)Benzamide] | 88.8 ± 0.2 | 
 |  | 280 ± 100 | O=C(CCCC[C@@H]1SC[C@@H]2NC(=O)N[C@@H]21)Nc1ccc(C(=O)Nc2ccc(C34CC5CC(CC(C5)C3)C4)cc2)cc1 [1‐3y, N‐(4‐((3r,5r,7r)‐Adamantan‐1‐yl)Phenyl)−4‐(5‐((3aS,4S,6aR)−2‐Oxohexahydro‐1H‐Thieno[3,4‐d]Imidazol‐4‐yl)Pentanamido)Benzamide] |  | 90.4 ± 0.8
2100 ± 400 |  |  | CC(NC(=O)c1ccc(NC(=O)c2ccccn2)cc1)C12CC3CC(CC(C3)C1)C2 (stereo not shown) [2‐3c, N‐(4‐((1‐((3r,5r,7r)‐Adamantan‐1‐yl)Ethyl)Carbamoyl)Phenyl)Picolinamide] | 79.9 ± 2 | 
 |  |  | O=C(Nc1ccc(C23CC4CC(CC(C4)C2)C3)cc1)c1ccccc1Br [1‐3d, N‐(4‐((3r,5r,7r)‐Adamantan‐1‐yl)Phenyl)−2‐Bromobenzamide] | 52.3 ± 3.1 | 
 |  |  | O=C(Nc1ccc(C23CC4CC(CC(C4)C2)C3)cc1)c1ccsc1 [1‐4o, N‐(4‐((3r,5r,7r)‐Adamantan‐1‐yl)Phenyl)Thiophene‐3‐Carboxamide] | 48.5 ± 8.7 | 
 |  |  | CC(C)(C)OC(=O)Nc1ccc(C(=O)Nc2ccc(C34CC5CC(CC(C5)C3)C4)cc2)cc1 [1‐3r, Tert‐Butyl (4‐((4‐((3r,5r,7r)‐Adamantan‐1‐yl)Phenyl)Carbamoyl)Phenyl)Carbamate] | 54.6 ± 1.6 | 
2600 ± 500 |  |  | COC(=O)c1ccc(O)c(NC(=O)COc2ccc(C34CC5CC(CC(C5)C3)C4)cc2)c1 [LW6, reference compound] | 70.9 ± 3.7 | 
 |  |  | N#Cc1cccc(C(=O)Nc2ccc(C34CC5CC(CC(C5)C3)C4)cc2)c1 [1‐3k, N‐(4‐((3r,5r,7r)‐Adamantan‐1‐yl)Phenyl)−3‐Cyanobenzamide] | 67.4 ± 3.8 | 
950 ± 110 |  |  | CC(=O)Nc1ccc(C(=O)Nc2ccc(C34CC5CC(CC(C5)C3)C4)cc2)cc1 [1‐3x, 4‐Acetamido‐N‐(4‐((3r,5r,7r)‐Adamantan‐1‐yl)Phenyl)Benzamide] | 84.4 ± 1.9 | 
79 ± 2 | barely detectable in the plasma |  | O=C(Nc1ccc(C23CC4CC(CC(C4)C2)C3)cc1)c1cc[nH]n1 [1‐4m, N‐(4‐((3r,5r,7r)‐Adamantan‐1‐yl)Phenyl)−1H‐Pyrazole‐3‐Carboxamide] | 99.8 ± 0.1 | 
 |  |  | CCCCCCOc1cccc(C(=O)Nc2ccc(C34CC5CC(CC(C5)C3)C4)cc2)c1 [1‐3aj, N‐(4‐((3r,5r,7r)‐Adamantan‐1‐yl)Phenyl)−3‐(Hexyloxy)Benzamide] | 28.4 ± 6.9 | 
